From PubChem BioAssay AID652253 (Vanderbilt Specialized Chemistry Center, 2013) come the findings set out here.

Activity calls are given as the source filed them. No rule for the calls is given here.

The target of this assay is Proteinase-activated receptor 4 (Homo sapiens) (UniProt Q96RI0). Nature of the assay: PAR4 antagonist concentration-response, dose response, cell-based, CRC (AID 652253). As to conditions: cells, PAR4-AP induced response; for % PAR4-AP response remaining: at 10 µM (top of the series).
Chain of Proteinase-activated receptor 4 (Homo sapiens) (Q96RI0 whole entry, looked up): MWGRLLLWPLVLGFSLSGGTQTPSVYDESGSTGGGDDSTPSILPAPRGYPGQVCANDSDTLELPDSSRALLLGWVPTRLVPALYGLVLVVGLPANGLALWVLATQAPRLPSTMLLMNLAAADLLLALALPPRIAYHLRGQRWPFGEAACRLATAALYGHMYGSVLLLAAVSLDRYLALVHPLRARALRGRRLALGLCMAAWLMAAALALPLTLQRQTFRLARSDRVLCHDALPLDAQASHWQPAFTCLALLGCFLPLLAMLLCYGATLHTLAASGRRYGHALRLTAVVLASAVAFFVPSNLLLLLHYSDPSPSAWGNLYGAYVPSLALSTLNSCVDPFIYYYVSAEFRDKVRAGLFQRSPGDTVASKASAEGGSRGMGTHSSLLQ

As usually defined, the IC50 is the concentration that gives 50% inhibition. Turning to `COc1ccc(-c2cn(Cc3cccc(Br)c3)c3ccccc23)cn1`, the IC50 result was “inactive”. On to `COc1ccc(-c2cn(Cc3ccccc3)c3ccccc23)cn1`, for which the IC50 entry is “inactive”. For `Fc1ccc(-c2cn(Cc3ccccc3)c3ccccc23)cn1`, the “% PAR4-AP response remaining” value was “inactive”. Consider `COc1ccc(COc2ccc(C(=O)NCCC(C)(C)C)cc2)cc1`, for which the IC50 was 139 nM.

Consider `COc1ccc(-c2cn(Cc3ccccc3)c3ccccc23)cc1`, for which the “% PAR4-AP response remaining” value is “inactive”.

For `COc1ccc(-c2cn(Cc3cccc(S(C)(=O)=O)c3)c3ccccc23)cn1`, the “% PAR4-AP response remaining” value was “inactive”.

`COc1ccc(-c2cn(Cc3cccc(Cl)c3)c3ccccc23)cn1`: the IC50 result is “inactive”. The same measure, in the same setting: the same measure for `COc1ccc(-c2cn(Cc3cccc(F)c3)c3ccccc23)cn1`: “inactive”.
